Assay results reported in patent US7727993B2, “Administering adenosine A2A receptor antagonist to reduce or suppress side effects of parkinson's disease therapy” (Kyowa Hakko Kirin Co., Ltd., priority 2002, dated 2010).
“Also recorded” adds a separate entry of the source.

What was measured:
[1] = test system: 6-hydroxydopamine lesion rats; experiment: In vivo microdialysis of GABA and glutamate in substantia nigra pars reticulata (Example 3); set-up: species or system rat
Procedure: GABA and glutamate concentrations in an output nucleus of basal ganglia, substantia nigra pars reticulata (SNr), are measured in the 6-hydroxydopamine lesion rats and the chronically L-DOPA-treated rats after 6-hydroxydopamine lesion. Effect of adenosine A2A receptor selective antagonists on GABA and glutamate levels in SNr and dyskinesias was examined. 6-hydroxydopamine (8 μg) was injected into the left medial forebrain bundle in a rat. One week after the lesion, the rats were then tested for contralateral turning by injecting apomorphine (0.1 mg/kg s.c.). Only those animals showing robust contralateral turning were used in subsequent experiments. […] Rats were placed in each test chamber and the microdialysis probe inserted into SNr was attached to a fluid swivel (TCS2-23, Eicom) that allowed free movement (also sustained rotational behavior). Probes were continuously perfused with a modified Ringer's solution (1.2 mmol/L CaCl2, 2.7 mmol/L KCl, 148 mmol/L NaCl, and 0.85 mmol/L MgCl2; pH 7, artificial cerebrospinal fluid solution) at a rate of 2 μL/min via a microinjection pump (CMA/100, Carnegie […] AB). After stabilization of basal level of release for 3-4 h, 4 samples (60 μL each) during 2 h of perfusion were collected using a fraction collector (CMA/140, Carnegie […]). […] The samples were immediately assayed or frozen and stored in a deep freeze (-80° C.) before assays. GABA and glutamate were analyzed using reverse phase high-performance liquid chromatograph with fluorescence detection after pre-column derivatization of the amino acids with orthophthaldialdehyde reagent. Lindroth and Mopper (1979).

[2] = test system: chronically L-DOPA-treated 6-hydroxydopamine lesion rats; experiment: Abnormal involuntary movements (AIMs) scoring, L-DOPA induced dyskinesia (Example 3); type: in vivo, rat
Procedure: 6-hydroxydopamine (8 μg) was injected into the left medial forebrain bundle in a rat. One week after the lesion, the rats were then tested for contralateral turning by injecting apomorphine (0.1 mg/kg s.c.). Only those animals showing robust contralateral turning were used in subsequent experiments.
During the chronic treatment of L-DOPA, recording of severity scale of AIMs were carried out. In addition, an amplitude-based scale for each limb and axial AIMs was scored during a microdialysis study. Amplitude scores of limb or axial AIMs (each ranging from 0 to 4) was rated based on both the magnitude of paw/limb translocation and of the visible involvement of distal versus proximal muscle groups or on the lateral deviation (or torsion) of an animal's neck and trunk from the longitudinal axis of its body, respectively.

[3] = test system: MPTP cynomologus monkeys; experiment: Chronic L-DOPA alone or with KW-6002 in drug-naive MPTP parkinsonian monkeys (Example 4); type: in vivo; conditions: L-DOPA alone group versus L-DOPA plus KW-6002 group; week 3 and 4; FIG. 8
Procedure: ANIMALS: 8 (eight) female drug-naïve cynomologus monkeys weighing between 3 and 5 kg were used. They were rendered parkinsonian by subcutaneous infusion of MPTP (0.5 mg daily) until development of an obvious parkinsonian Syndrome (akinesia, hunched posture and tremor associated with a disability score on our scale of 6 or more). The cumulative dose necessary was variable: from 3.5 to 23.5 mg. The animals were allowed to recover during at least one month except an animal who had to be treated earlier because of marked akinesia. They were scored at least once daily. The disability score remained stable throughout that period. […] The drug was administered orally with a special capsule handler. The animals in the KW-6002 group also received this compound (90 mg/kg) by the oral route. The animals were observed daily (from Monday to Friday) in their cages through a one-way screen and video recordings were made of significant events (abnormal behavior—dyskinesias). They were scored on disability scale and eventually dyskinesia rating scale, before and during the effect. The treatment with L-DOPA was continued for one month.

[4] = test system: MPTP-treated common marmosets; experiment: L-DOPA induced dyskinesia in MPTP-treated marmosets primed with L-DOPA (Example 5); type: in vivo; conditions: L-DOPA 2.5 mg/kg oral
Procedure: METHODS: MPTP (Sigma-Aldrich, St. Louis, Mo., USA) was dissolved in physiological saline and administered at a dose of 2.0 mg/kg s.c. daily for 5 days. Then, MPTP 2 mg/kg were further administered approximately 3 weeks.
The dyskinesia of the animals was scored using the rating scale described in Table 4. […] The score was calculated as the L-DOPA pre value. On the next day the animals received vehicle for the vehicle control value. […] Animals were assessed for dyskinesia on days 1, 3, 5, 7, 14, 21 and 28 according to the rating scale.
Abnormal movement such as, orofacial movements, myoclonus and complex stereotypic behaviors (e.g., elaborate checking, obsessive grooming), are exclude from dyskinesia rating.
Remarks According to Dyskinesia. Dystonia (arm, leg and trunk): abnormal sustained posture (ex. leg elevation). Stereotypic reaching (arm) Athetosis (arm and leg): writhing twisting movements. Chorea (arm and leg): abnormal rapid (dance like) movements of limbs. Akathisia: motor restlessness. Dyskinesia score is become higher according to severity of dyskinesia. The maximal score is four points.

[5] = L-DOPA treatment 2 weeks after 6-hydroxydopamine lesion
[6] = L-DOPA treatment 3 weeks after 6-hydroxydopamine lesion

SMILES: N[C@@H](Cc1ccc(O)c(O)c1)C(=O)O [L-DOPA]
- nigral GABA level ([1]; 6-hydroxydopamine lesion rats, change from pre-value, KW-6002 1 mg/kg p.o., FIG. 2A, 3A): facilitation; also recorded: significant increases
- nigral glutamate level ([1]; 6-hydroxydopamine lesion rats, change from pre-value, KW-6002 1 mg/kg p.o., FIG. 2B, 3B): facilitation; also recorded: significant increases
- basal level of nigral GABA ([1]; L-DOPA treatment 1 week (20 mg/kg orally twice a day) after 6-hydroxydopamine lesion): 19.3 ± 2.3 nmol/L
- basal level of nigral glutamate ([1]; L-DOPA treatment 1 week after 6-hydroxydopamine lesion): 147.5 ± 38.1 nmol/L
- basal level of nigral GABA [1, 5]: 20.9 ± 6.8 nmol/L
- basal level of nigral glutamate [1, 5]: 112.0 ± 47.1 nmol/L
- basal level of nigral GABA [1, 6]: 23.6 ± 4.5 nmol/L
- basal level of nigral glutamate [1, 6]: 425.4 ± 99.6 nmol/L
- nigral GABA levels after administration ([1]; chronically L-DOPA-treated 6-hydroxydopamine lesion rats, FIG. 5A): without effect
- nigral glutamate levels after administration ([1]; chronically L-DOPA-treated 6-hydroxydopamine lesion rats, FIG. 5B): increased
- basal nigral glutamate concentration during chronic L-DOPA (in words) ([1]; constant until 2 weeks): drastically increase in 3 weeks
- basal nigral GABA levels during chronic L-DOPA (in words) ([1]; throughout 1 to 3 weeks): maintained unchanged
- average maximum AIM scores ([2]; 2 to 3 weeks chronic L-DOPA, from 10 min to 3 hrs after L-DOPA administration): 9
- AIMs (sum of the amplitude score of limb and axial AIMs) ([2]; chronically L-DOPA-treated rats, FIG. 4): marked AIMs
- level of dyskinesia [3]: reached a higher level
- dyskinesias induced by L-DOPA [4]: mild dyskinesias
